Activity calls are given as the source filed them.
Tests used:
[1] = molecular target: T1, Orexin/Hypocretin receptor type 1 (Homo sapiens, UniProt O43613); assay: (§1) Fluorescence-based cell-based high throughput dose response assay for antagonists of the orexin 1 receptor (OX1R; HCRTR1). [Related pubchem assays (depositor defined):AID434989, AID435008, AID463079, AID485270, AID492963, AID492964, AID492965, AID493232, AID504717, AID504718]; assay type: functional
T1 sequence (O43613 whole entry): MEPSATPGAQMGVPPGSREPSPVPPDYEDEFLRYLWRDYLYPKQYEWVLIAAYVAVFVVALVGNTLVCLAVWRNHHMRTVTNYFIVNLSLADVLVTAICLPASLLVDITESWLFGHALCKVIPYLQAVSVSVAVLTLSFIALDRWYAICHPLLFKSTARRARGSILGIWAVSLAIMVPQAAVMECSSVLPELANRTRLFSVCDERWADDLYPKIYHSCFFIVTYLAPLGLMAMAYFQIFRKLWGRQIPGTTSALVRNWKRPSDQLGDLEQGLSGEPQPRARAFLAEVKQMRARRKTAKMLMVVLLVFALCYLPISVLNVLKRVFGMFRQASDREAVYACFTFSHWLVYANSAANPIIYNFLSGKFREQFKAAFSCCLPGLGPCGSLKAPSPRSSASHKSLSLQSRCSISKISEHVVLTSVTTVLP

Orexin receptor type 2 [2] = molecular target: T2, Orexin receptor type 2 (Homo sapiens, UniProt O43614); assay: Counterscreen assay for antagonists of the orexin 1 receptor (OX1R; HCRTR1): Homogeneous Time Resolved Fluorescence (HTRF)-based cell-based dose response assay for antagonists of the orexin 2 receptor (OX2R; HCRTR2), run by assay provider.; assay type: functional
[3] = Luminescence Cell-Based Dose Retest to Confirm Inhibitors of Cancer Stem Cells. [Related pubchem assays (depositor defined):AID2717, AID2721]; assay type: functional; settings: Homo sapiens
[4] = HEK-293T viability loss after treatment – luminescence, T-cell screen hits, cytotoxicity control for TCR NF-kB inhibitor project, dose response (AID 489026); assay type: functional, cell-based;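 note: cells exposed to compound about 14 hours before the viability readout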
BJ [5] = assay: BJ-TERT-LT-ST fibroblast viability loss – cell-based, RAS-independent, luminescence, dose response (AID 1935); assay type: functional, Homo sapiens; settings: Homo sapiens, BJ;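 note: BJ fibroblasts immortalized with TERT plus LT and ST oncogenes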
CHO-K1 = assay: (§2) Counterscreen for antagonists of the orexin 1 receptor (OX1R; HCRTR1): Homogeneous time resolved fluorescence (HTRF)-based cell-based dose response assay to identify antagonists of the parental CHO-K1 cell line. [Related pubchem assays (depositor defined):AID434989, AID435008, AID463079, AID485270, AID492963, AID492964, AID492965, AID493232, AID504699, AID504701]; assay type: functional; settings: Cricetulus griseus
[6] = DRD fibroblast viability loss – cell-based, non-viral oncogenic, luminescence, dose response (AID 1934); assay type: functional; settings: Homo sapiens
Paired box protein Pax-8 = Paired box protein Pax-8 (Homo sapiens, UniProt Q06710); assay: PAX8 transcriptional activity inhibition in RMG-I – RMG-I cells, luciferase, cherry-pick, dose response (AID 687027); assay type: functional, cell-based;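 note: luciferase reporter driven by Pax8 target thyroperoxidase promoter measured by SteadyGlo luminescence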
BJ [7] = assay: BJ-TERT fibroblast viability loss – cell-based, RAS-independent, luminescence, dose response (AID 1933); assay type: functional, Homo sapiens; settings: Homo sapiens, BJ
[8] = as §2, with “Fluorescence-based” for “Homogeneous time resolved fluorescence (HTRF)-based”, “cell-based high throughput” for “cell-based”, “CHO” for “CHO-K1”; assay type: functional
Orexin receptor type 2 [9] = molecular target: T2, Orexin receptor type 2; assay: Counterscreen assay for antagonists of the orexin 1 receptor (OX1R; HCRTR1): Fluorescence-based cell-based dose response assay for antagonists of the orexin 2 receptor (OX2R; HCRTR2), run by assay provider.; assay type: functional
[10] = molecular target: T1, Orexin/Hypocretin receptor type 1; assay: as §1, with “Homogeneous Time Resolved Fluorescence (HTRF)-based” for “Fluorescence-based”; assay type: functional
BJ [11] = assay: cells; assay type: functional, cell-based, Homo sapiens; settings: Homo sapiens, BJ
[12] = NIH3T3 cell viability loss – ATP luminescence, mouse fibroblasts, counter-screen, dose response (AID 2010); assay type: functional, cell-based;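 note: cells exposed to compound for about 90 hours before reading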
[13] = Trypanosoma cruzi growth suppression in host cells – NIH3T3 host cells, beta-gal luminescence, confirmation (AID 2044); assay type: functional, cell-based;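 note: intracellular parasites grown in NIH/3T3 mouse fibroblasts as host cells; luminescent beta-galactosidase reporter signal from transgenic T. cruzi replicating inside host cells; inhibitors lower the luminescence signal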
[14] = molecular target: T3, Heat shock factor protein 1 (Mus musculus, UniProt P38532); assay: decrease of HSF1-responsive luciferase luminescence – cell-based, NIH3T3, dose retest, confirmation (AID 2382); assay type: functional;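 note: NIH3T3 fibroblasts with HSF1-driven luciferase reporter stressed by proteasome inhibitor MG132; luminescence from HSF1-driven luciferase expression after 8 hours of MG132 stress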
T3 sequence (P38532 whole entry): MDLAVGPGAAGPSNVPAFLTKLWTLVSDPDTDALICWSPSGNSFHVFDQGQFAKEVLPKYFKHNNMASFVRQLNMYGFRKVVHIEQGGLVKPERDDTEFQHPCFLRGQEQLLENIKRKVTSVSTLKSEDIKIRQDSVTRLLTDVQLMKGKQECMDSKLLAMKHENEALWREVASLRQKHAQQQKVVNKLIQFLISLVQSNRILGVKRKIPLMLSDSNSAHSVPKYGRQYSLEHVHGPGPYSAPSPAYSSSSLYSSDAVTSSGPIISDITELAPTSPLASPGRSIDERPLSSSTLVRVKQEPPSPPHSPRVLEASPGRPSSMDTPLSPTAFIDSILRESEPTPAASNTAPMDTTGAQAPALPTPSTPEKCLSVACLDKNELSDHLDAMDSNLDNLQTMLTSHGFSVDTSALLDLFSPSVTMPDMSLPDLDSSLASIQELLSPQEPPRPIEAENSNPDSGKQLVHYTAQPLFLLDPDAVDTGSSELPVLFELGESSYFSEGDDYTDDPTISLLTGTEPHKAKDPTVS

[15] = test system: Streptococcus sp. 'group A'; assay: Streptococcus pyogenes SK(-)GAS viability under kanamycin – luminescence, BacTiterGlo, confirmation, counter-screen for streptokinase expression inhibitor project, dose response (AID 1900); assay type: functional, organism-based
HEK293 [16] = assay: SAR Analysis of small molecule inhibitors of both B-cell and T-cell specific antigen receptor-induced NF-kB activation in a HEK-293T cell line using a luminescence assay. [Related pubchem assays (depositor defined):AID435003, AID435022, AID465, AID489019, AID489029]; assay type: functional, cell-based; settings: Homo sapiens
[17] = molecular target: T4, Type-1 angiotensin II receptor (Homo sapiens, UniProt P30556); assay: antagonism of angiotensin II type 1 receptor – cell-based, uHTS hits, selectivity assay for APJ receptor antagonist project, dose response (AID 463214); assay type: functional;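 note: antagonist potency against angiotensin II stimulated AT1 response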
T4 sequence (P30556 whole entry): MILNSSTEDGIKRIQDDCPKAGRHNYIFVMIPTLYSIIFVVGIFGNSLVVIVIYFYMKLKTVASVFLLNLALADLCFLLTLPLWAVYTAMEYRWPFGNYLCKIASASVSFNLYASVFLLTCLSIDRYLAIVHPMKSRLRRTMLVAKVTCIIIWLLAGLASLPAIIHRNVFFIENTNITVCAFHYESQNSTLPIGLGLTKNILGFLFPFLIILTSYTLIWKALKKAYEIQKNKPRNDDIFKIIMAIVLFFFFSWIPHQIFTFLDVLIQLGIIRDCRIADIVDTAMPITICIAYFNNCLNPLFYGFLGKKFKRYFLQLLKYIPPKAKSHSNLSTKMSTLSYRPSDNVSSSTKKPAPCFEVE

[18] = Luminescence-based dose response cell-based high throughput screening assay for cytotoxic compounds using the IEC-6 intestinal epithelial cell line. [Related pubchem assays: 1858 (Summary AID.), 1825 (Counterscreen.), 1907 (Confirmation screen.)]; assay type: functional
[19] = non-specific 3'UTR reporter inhibition in Clone20-Shn3RL – cell-based, Renilla luciferase, cherry-picked, counter-screen for Shn3 inhibitor project, dose response (AID 624133); assay type: functional
[20] = loss of viability in HepG2 cells – cell-based, CellTiter-Glo, cherry-picked, cytotoxicity control for Shn3 inhibitor project, dose response (AID 624134); assay type: functional
Streptokinase A = molecular target: T5, Streptokinase A (Streptococcus pyogenes serotype M1, UniProt P10520); assay: viability-normalized secreted streptokinase activity reduction – plasminogen activation absorbance, OD405, dose response (AID 1914); assay type: functional, Streptococcus pyogenes M1 GAS;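 note: secreted streptokinase activity via plasminogen activation per viability signal from cell pellet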
T5 sequence (P10520 whole entry): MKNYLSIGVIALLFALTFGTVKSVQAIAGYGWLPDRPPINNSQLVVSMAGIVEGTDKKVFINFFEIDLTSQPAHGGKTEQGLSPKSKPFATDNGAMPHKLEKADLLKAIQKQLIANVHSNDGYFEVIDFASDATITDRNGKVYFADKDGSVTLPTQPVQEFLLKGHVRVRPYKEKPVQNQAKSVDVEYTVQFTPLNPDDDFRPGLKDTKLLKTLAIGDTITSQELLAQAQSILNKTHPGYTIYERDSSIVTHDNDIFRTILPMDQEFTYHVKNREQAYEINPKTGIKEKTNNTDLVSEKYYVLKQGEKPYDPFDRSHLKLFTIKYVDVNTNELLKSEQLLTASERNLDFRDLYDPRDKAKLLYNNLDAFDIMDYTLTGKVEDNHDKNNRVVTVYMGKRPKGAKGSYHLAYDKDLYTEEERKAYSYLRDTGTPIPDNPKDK

HEK293 [21] = assay: HEK293T cell viability loss, resazurin readout – resazurin fluorescence, cytotoxicity control for NF-kB activator project, SAR follow-up (AID 493251); assay type: functional, cell-based; settings: Homo sapiens
[22] = Fluorescence-based cell-based high throughput dose response assay for inhibitors of the interaction of nucleotide-binding oligomerization domain containing 2 (NOD2) and the receptor-interacting serine-threonine kinase 2 (RIPK2).; assay type: functional; settings: Homo sapiens
Streptococcus = assay: GAS UMAA2166 growth inhibition – luminescence, BacTiterGlo, counter-screen for streptokinase expression inhibitor project, dose response (AID 1915); assay type: functional, organism-based;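 note: potency for reduction of bacterial viability or growth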
Beta-galactosidase = Beta-galactosidase (Escherichia coli, UniProt Q8VNN2); assay: PubChem AID 485352; assay type: functional
Jurkat = assay: SAR Analysis of small molecule inhibitors of both B-cell and T-cell specific antigen receptor-induced NF-kB activation in a Jurkat cell line using a luminescence assay. [Related pubchem assays (depositor defined):AID435003, AID435022, AID465, AID489029]; assay type: functional, cell-based; settings: Homo sapiens
[23] = reduction of Shn3 3'UTR-driven luciferase in osteoblasts – cell-based, Clone20 osteoblasts, firefly luciferase, cherry-picked, dose response (AID 624132); assay type: functional;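 note: firefly luciferase luminescence from reporter carrying the Shn3 3'UTR in osteoblasts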
[24] = molecular target: Multidrug resistance protein CDR1 (Candida albicans, UniProt P43071); assay: inhibition of Nile Red efflux via Candida CDR1 – S. cerevisiae AD1-8u, singleplex, Cherry Pick1 hits, dose response (AID 588606); assay type: functional
Multidrug resistance protein CDR1, sequence (P43071 whole entry, looked up): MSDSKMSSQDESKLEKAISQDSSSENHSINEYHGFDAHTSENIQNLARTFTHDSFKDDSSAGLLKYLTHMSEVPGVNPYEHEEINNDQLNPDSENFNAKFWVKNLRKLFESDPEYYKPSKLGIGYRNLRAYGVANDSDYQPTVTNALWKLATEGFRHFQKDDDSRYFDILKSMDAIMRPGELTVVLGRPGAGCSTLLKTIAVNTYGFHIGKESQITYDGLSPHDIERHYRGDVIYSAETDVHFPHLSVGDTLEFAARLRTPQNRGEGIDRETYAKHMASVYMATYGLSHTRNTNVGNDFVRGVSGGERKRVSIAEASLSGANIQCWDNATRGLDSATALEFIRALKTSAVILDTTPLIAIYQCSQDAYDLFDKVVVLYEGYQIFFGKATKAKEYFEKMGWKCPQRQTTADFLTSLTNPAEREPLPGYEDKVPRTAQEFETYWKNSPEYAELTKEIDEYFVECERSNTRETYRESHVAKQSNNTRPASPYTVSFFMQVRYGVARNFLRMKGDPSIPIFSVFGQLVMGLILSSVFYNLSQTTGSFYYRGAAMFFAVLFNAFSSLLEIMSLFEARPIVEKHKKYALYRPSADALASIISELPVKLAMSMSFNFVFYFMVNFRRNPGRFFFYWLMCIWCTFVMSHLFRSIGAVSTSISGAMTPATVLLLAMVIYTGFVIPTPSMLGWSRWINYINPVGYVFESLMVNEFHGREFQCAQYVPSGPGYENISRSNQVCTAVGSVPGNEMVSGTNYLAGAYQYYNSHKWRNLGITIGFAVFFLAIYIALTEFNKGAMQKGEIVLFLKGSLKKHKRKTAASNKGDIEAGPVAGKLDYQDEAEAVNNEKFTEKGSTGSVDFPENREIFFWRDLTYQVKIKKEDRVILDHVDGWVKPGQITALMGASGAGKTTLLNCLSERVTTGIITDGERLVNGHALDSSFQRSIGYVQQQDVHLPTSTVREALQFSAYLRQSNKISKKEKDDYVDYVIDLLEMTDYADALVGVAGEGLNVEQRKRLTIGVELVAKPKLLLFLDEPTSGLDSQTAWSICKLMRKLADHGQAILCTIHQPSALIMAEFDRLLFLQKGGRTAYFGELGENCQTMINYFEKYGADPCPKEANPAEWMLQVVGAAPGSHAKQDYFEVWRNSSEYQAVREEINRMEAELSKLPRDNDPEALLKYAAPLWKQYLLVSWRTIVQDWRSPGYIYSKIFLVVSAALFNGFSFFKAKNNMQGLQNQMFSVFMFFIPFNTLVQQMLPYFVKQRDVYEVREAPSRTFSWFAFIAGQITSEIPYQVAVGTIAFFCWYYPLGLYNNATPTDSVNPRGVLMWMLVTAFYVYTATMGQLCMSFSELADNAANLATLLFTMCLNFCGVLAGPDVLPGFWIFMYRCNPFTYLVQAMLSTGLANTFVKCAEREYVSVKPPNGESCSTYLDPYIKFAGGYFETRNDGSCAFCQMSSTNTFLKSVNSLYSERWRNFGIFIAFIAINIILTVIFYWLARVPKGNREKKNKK

T2 sequence (O43614 whole entry): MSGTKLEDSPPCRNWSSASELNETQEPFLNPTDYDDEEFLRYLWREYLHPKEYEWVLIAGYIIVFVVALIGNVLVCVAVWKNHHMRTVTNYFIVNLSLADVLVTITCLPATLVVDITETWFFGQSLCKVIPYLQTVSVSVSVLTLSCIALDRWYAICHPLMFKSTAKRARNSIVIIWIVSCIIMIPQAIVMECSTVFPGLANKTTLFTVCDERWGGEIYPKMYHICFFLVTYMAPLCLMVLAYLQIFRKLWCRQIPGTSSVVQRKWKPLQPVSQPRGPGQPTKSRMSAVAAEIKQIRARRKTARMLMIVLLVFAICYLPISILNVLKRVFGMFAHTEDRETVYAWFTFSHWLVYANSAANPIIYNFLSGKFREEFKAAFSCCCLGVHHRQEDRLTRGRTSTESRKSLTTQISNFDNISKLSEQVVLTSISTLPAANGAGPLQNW
Paired box protein Pax-8, sequence (Q06710 whole entry): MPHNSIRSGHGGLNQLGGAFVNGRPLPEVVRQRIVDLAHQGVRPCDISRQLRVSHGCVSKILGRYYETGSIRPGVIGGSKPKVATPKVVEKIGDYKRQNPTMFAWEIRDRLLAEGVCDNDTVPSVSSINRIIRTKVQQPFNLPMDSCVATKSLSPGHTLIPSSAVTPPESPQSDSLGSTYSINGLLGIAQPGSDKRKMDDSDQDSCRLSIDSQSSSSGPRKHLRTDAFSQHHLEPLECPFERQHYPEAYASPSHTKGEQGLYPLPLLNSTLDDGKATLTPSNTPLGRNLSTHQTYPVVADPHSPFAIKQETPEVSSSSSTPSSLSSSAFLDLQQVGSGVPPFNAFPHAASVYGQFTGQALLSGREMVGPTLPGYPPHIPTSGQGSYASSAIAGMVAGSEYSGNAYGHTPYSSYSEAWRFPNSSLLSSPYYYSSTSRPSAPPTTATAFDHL
Beta-galactosidase, sequence (Q8VNN2 whole entry): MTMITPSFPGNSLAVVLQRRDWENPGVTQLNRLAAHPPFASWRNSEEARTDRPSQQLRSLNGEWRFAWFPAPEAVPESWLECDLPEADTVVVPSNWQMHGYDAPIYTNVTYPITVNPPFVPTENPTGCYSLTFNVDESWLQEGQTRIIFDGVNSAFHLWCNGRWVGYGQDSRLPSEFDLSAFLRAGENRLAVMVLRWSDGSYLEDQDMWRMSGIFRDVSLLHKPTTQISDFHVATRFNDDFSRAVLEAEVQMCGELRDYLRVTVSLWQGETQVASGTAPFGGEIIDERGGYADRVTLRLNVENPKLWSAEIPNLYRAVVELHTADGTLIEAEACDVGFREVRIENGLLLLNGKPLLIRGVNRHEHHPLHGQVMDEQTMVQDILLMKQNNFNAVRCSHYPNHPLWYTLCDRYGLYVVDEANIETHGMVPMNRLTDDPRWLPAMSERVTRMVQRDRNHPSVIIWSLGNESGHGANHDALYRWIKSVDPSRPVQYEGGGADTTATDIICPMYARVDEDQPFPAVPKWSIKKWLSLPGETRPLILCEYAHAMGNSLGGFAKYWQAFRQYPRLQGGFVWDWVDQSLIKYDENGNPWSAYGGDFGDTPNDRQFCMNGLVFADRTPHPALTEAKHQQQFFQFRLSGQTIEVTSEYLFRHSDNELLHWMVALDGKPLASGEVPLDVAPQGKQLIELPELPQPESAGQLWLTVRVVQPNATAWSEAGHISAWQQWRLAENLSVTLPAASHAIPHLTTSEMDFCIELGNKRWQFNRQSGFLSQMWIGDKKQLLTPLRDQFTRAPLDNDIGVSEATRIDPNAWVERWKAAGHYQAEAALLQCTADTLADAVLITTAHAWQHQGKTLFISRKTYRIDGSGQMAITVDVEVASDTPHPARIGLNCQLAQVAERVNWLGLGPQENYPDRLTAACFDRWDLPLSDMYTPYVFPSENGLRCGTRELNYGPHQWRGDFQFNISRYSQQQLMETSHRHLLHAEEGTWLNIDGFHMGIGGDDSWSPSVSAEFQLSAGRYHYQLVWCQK

CCn1c2ccccc2c2cc(NC(=O)c3cc(OC)cc(OC)c3)ccc21
active: IC50 [1] 1.38 µM | AC50 [3] < 0.16 µM | EC50 [6] 0.545 µM | AC50 (Paired box protein Pax-8) 4.74 µM | EC50 (BJ [7]) 0.431 µM | IC50 [10] 0.554 µM | EC50 (BJ [11]) 22.8 µM
inconclusive: EC50 (BJ [5]) 0.365 µM
inactive: IC50 (Orexin receptor type 2 [2]) > 50 µM | IC50 [4] > 80 µM | IC50 (CHO-K1) > 66.2 µM | IC50 [8] > 49.8 µM | IC50 (Orexin receptor type 2 [9]) 21.7 µM

COc1cc(NS(=O)(=O)c2ccc(C)cc2)c2ncccc2c1
inactive: IC50 (HEK293 [16]) > 79 µM | IC50 [4] > 80 µM | IC50 (HEK293 [21]) > 80 µM | EC50 (Beta-galactosidase) > 40 µM
> 150 µM (not active): EC50 (Streptokinase A)
active: EC50 [12] 1.45 µM | EC50 [13] 0.524 µM | EC50 [14] 24.3 µM | EC50 [15] 2.6 µM | IC50 [17] 3.88 µM | IC50 [18] 1.58 µM | AC50 [19] 13.8 µM | AC50 [20] 9.77 µM | IC50 [22] 5.53 µM | EC50 (Streptococcus) 21.7 µM | IC50 (Jurkat) 1.52 µM | AC50 [23] 3.35 µM

COc1cc2c(cc1NC(=O)CSc1nnc(Cc3cccs3)n1Cc1ccco1)oc1ccccc12
active: EC50 [24] 0.011 µM
